According to paper PMC5590943, “Pharmacological characterisation of S 47445, a novel positive allosteric modulator of AMPA receptors” (PLoS ONE, 2017):

Key:
[1] = test system: male OFA rats; assay: Novel object recognition test in rats; format: in vivo, rat; conditions: 3 administrations
Experimental: Novel object recognition and T-maze studies were conducted respectively in male OFA rats (150–175 g, Charles River, Saint-Germain-Nuelles, France) and male C57Bl/6 mice (5.5–6.5 month-old, Charles River, Saint-Germain-Nuelles, France). Animals were housed in collective cages with continuous access to tap water and food on a 12 h light-dark cycle, in a temperature-controlled (21 ± 1°C) and ventilated room. On completion of studies subjects were euthanized by either CO2 inhalation or intraperitoneal (i.p.) lethal pentobarbital injection. The novel object recognition test was used as the primary in vivo screening assay to identify AMPA-PAMs. The T-maze task was performed using a modified continuous performance procedure previously described in mice.
S 47445 was suspended either in distilled water with Tween80® 2% for oral administration or saline with Tween80® 2% for i.p. administration. Tween80® was obtained from Sigma-Aldrich, Lyon, France. S 47445 was synthetized by Servier, Suresnes, France. […]
The novel object recognition paradigm was developed by Ennaceur and Delacour, 1988 and aimed to evaluate potential procognitive effects of drugs on a form of recognition (episodic-like) memory in the rat. […] Consequently, recognition is measured by the time spent by rats in exploring two different objects, one being familiar and the other being new.
Animals were submitted to three phases of the test. […] Each rat was placed in the arena, and the time spent actively exploring the objects was recorded. […] After 24 h, during the third phase (session of recognition), each rat was again placed in the apparatus for 3 min in the presence of one of the familiar (Fam) objects and a new (New) object, and the time spent exploring both objects was again recorded. […] The difference in duration of exploration of the two objects (New-Fam) and the sum of duration of exploration on session of recognition were determined. Statistical analysis was performed on the discrimination index calculated as (New-Fam)/(Fam+New) using a one-way ANOVA using SAS v9.2 software (SAS Institute, Cary, NC). […]

[2] = biological target: A2A (h) (Homo sapiens, UniProt P29274); assay: Binding assay, [3H]CGS 21680
Chain of A2A (h) (P29274 whole entry): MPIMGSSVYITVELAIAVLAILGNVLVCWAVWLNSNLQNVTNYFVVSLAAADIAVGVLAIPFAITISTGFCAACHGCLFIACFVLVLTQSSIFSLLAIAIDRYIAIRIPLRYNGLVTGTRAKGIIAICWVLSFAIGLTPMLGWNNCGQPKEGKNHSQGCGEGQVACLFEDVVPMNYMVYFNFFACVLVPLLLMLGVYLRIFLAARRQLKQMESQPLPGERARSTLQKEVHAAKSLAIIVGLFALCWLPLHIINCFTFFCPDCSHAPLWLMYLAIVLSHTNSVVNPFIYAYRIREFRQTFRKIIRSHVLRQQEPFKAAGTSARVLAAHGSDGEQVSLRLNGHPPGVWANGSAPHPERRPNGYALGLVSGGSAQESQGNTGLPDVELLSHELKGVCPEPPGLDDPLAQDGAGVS

[3] = biological target: Estrogen a (h) (ERa) (Homo sapiens, UniProt P03372); assay: Binding assay, fluormone ES2
Chain of Estrogen a (h) (ERa) (P03372 whole entry): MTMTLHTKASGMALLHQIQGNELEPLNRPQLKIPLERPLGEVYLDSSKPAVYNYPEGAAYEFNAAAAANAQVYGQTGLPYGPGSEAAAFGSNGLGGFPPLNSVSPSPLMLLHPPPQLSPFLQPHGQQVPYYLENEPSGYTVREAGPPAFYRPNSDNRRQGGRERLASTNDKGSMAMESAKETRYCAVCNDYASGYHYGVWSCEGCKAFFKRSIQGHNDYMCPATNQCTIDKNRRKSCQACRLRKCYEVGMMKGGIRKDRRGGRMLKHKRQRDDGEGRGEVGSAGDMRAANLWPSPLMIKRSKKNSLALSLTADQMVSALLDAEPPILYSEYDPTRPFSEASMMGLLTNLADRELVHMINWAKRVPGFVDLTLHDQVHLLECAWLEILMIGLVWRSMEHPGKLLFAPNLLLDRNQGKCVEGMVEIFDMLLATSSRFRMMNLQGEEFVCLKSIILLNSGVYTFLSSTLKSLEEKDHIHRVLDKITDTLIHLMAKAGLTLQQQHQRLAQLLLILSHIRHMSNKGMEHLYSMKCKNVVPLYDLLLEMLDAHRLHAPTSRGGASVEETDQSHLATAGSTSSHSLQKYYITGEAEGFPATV

[4] = test system: BZD (central); assay: Binding assay, [3H]flunitrazepam
[5] = test system: K^+ATP channel; assay: Binding assay, [3H]glibenclamide
[6] = test system: I1; assay: Binding assay, [3H]clonidine (+ 10 μM RX821002)
[7] = test system: PDE1; assay: Enzyme and cell-based assay, [3H]cAMP + cAMP (1 μM)
[8] = test system: PDE3 (h); assay: Enzyme and cell-based assay, [3H]cAMP + cAMP (0.1 μM)
[9] = test system: NMDA; assay: Binding assay, [3H]CGP 39653, rat cerebral cortex membranes
[10] = biological target: EGFR kinase (h) (Homo sapiens, UniProt P00533); assay: Enzyme and cell-based assay, ATP + biotinyl peptide (0.1 μM)
Chain of EGFR kinase (h) (P00533 25-1210): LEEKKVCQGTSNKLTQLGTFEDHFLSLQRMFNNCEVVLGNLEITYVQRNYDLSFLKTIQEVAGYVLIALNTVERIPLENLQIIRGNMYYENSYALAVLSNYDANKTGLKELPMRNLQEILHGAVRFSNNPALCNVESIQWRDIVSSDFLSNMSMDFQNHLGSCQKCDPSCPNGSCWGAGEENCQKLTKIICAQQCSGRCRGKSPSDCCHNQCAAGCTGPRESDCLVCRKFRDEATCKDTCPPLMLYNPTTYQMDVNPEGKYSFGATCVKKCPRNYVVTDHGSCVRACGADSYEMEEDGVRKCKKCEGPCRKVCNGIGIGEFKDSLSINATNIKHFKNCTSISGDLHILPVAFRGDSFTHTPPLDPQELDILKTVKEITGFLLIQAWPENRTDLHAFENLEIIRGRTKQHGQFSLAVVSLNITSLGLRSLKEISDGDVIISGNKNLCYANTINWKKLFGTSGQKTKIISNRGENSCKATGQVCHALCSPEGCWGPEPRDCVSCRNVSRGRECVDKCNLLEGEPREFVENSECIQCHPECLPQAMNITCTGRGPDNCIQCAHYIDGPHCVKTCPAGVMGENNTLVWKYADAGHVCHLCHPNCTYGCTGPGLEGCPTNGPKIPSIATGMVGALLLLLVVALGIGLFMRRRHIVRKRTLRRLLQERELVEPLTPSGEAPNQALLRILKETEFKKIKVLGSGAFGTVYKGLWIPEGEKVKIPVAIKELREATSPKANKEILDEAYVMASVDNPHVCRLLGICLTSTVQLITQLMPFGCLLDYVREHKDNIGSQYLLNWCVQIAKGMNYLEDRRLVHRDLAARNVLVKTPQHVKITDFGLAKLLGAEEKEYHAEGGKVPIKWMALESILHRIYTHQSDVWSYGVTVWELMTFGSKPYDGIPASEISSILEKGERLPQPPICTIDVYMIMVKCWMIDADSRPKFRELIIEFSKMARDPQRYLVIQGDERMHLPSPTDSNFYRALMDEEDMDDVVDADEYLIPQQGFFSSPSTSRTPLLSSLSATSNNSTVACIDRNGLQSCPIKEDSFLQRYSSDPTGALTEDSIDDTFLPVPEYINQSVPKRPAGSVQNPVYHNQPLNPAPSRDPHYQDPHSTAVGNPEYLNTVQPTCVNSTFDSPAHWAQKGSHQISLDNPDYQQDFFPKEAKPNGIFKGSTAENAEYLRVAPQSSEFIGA

[11] = test system: Kainate; assay: Binding assay, [3H]kainic acid, rat cerebral cortex membranes
[12] = biological target: human GluK2 kainate receptors (Homo sapiens, UniProt Q13002); assay: Glutamate-evoked current in oocytes expressing kainate receptors; conditions: up to 100 μM; n = 12
Chain of human GluK2 kainate receptors (Q13002 32-908): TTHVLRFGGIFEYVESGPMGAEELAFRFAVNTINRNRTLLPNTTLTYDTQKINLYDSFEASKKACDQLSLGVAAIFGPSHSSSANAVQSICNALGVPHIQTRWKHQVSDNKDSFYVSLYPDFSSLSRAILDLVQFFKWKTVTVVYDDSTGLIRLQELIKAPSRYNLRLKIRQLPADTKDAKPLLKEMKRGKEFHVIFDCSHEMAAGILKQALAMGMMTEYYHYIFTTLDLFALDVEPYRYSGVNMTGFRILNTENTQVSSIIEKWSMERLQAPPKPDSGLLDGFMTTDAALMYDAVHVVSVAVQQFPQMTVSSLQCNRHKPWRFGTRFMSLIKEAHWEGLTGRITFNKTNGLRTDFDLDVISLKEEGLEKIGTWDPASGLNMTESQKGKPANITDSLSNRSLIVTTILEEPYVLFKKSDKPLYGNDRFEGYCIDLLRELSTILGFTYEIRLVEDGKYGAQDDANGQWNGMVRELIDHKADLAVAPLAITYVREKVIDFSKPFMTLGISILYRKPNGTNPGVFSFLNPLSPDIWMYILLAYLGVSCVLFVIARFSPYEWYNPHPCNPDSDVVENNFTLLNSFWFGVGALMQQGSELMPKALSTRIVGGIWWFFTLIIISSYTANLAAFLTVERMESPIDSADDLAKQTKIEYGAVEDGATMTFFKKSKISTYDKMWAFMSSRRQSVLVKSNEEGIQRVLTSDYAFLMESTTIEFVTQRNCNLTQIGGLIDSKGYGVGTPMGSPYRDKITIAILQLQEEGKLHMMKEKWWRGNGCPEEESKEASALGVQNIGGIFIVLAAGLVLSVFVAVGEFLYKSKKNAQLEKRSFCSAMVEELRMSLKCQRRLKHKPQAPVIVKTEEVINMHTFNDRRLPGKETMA

[13] = biological target: GluA1flop/GluA2flip (GluA1o/2i) AMPA receptors (Homo sapiens, UniProt P42261+P42262, Q607R); assay: Whole cell patch clamp recordings in transiently transfected HEK-293 cells; conditions: 0.1 μM S 47445
Chain of GluA1flop/GluA2flip (GluA1o/2i) AMPA receptors (P42261 19-906): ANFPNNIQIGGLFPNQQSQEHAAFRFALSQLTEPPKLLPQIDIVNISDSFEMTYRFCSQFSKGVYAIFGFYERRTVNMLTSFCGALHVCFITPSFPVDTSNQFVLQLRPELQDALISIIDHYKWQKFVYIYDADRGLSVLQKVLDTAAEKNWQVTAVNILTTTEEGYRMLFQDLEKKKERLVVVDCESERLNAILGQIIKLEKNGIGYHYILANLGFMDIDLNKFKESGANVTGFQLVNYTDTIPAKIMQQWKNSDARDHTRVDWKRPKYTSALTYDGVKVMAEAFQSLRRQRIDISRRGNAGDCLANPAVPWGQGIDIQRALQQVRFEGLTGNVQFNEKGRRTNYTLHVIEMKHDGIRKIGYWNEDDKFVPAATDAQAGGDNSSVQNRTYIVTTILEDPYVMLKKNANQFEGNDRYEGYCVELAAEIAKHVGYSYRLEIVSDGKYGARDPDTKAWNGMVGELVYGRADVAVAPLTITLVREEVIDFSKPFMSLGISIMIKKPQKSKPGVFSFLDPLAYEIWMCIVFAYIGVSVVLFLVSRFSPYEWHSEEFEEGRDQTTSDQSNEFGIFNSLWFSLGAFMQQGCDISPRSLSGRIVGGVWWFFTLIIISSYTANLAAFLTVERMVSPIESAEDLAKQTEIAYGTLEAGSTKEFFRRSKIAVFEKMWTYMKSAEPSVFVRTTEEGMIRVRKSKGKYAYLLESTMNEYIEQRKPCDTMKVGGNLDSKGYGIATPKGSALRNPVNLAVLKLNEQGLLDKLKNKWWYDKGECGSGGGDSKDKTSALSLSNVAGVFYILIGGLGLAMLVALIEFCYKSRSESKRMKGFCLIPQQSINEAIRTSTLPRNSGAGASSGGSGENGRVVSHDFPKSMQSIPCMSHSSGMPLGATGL
Chain of GluA1flop/GluA2flip (GluA1o/2i) AMPA receptors (P42262 25-883 isoform P42262-2 Q607R): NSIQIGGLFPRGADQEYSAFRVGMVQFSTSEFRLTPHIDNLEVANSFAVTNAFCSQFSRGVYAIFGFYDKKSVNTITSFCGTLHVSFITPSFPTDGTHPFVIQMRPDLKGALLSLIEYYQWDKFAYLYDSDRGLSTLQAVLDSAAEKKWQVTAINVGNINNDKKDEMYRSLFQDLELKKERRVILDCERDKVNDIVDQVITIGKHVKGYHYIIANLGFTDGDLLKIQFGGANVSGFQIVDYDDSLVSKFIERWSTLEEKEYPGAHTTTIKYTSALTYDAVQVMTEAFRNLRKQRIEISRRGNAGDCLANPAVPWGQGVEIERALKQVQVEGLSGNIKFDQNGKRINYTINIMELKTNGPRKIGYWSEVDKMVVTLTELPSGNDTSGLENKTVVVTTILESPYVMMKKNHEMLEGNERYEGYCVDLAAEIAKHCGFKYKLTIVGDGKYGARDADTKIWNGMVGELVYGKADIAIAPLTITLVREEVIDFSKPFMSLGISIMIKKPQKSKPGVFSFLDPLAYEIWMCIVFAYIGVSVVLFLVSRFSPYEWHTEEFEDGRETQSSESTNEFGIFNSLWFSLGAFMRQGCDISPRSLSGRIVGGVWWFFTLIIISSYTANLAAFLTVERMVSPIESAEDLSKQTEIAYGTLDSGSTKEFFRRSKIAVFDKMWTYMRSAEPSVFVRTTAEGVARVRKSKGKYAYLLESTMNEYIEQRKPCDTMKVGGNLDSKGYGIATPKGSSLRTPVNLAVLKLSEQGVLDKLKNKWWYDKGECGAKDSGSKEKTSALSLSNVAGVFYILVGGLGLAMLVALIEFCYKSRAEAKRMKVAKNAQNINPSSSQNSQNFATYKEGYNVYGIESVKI

[14] = read-out: Ki, glutamate binding site, n = 2

## O=C1c2cc3nnn(CCc4cccc(F)c4)c(=O)c3cc2OCN1C1CC1 [S 47445, 8-cyclopropyl-3-[2-(3-fluorophenyl)ethyl]-7,8-dihydro-3H-[1,3]oxazino[6,5-g][1,2,3]benzotriazine-4,9-dione]
[1]; 0.3 mg/kg p.o., p ≤ 0.01
  Discrimination index versus vehicle: significantly increased the discrimination index
[1]; 1 mg/kg p.o., tendency of increase
  Discrimination index versus vehicle: did not reach statistical significance
[1]; 3 mg/kg p.o., p ≤ 0.05
  Discrimination index versus vehicle: significantly increased the discrimination index
[2]; S 47445 1.0E-05 M
  % Inhibition of control specific binding: 9%
[2]; S 47445 1.0E-07 M
  % Inhibition of control specific binding: -8%
[3]; S 47445 1.0E-05 M
  % Inhibition of control specific binding: 5%
[3]; S 47445 1.0E-07 M
  % Inhibition of control specific binding: 4%
[4]; S 47445 1.0E-05 M
  % Inhibition of control specific binding: -21%
[4]; S 47445 1.0E-07 M
  % Inhibition of control specific binding: -2%
[5]; S 47445 1.0E-05 M
  % Inhibition of control specific binding: 0%
[5]; S 47445 1.0E-07 M
  % Inhibition of control specific binding: 6%
[6]; S 47445 1.0E-05 M
  % Inhibition of control specific binding: 21%
[6]; S 47445 1.0E-07 M
  % Inhibition of control specific binding: 10%
[7]; S 47445 1.0E-05 M
  % Inhibition of control specific binding: 10%
[7]; S 47445 1.0E-07 M
  % Inhibition of control specific binding: 1%
[8]; S 47445 1.0E-05 M
  % Inhibition of control specific binding: -5%
[8]; S 47445 1.0E-07 M
  % Inhibition of control specific binding: 0%
[9]; S 47445 1.0E-05 M
  % Inhibition of control specific binding: -1%
[9]; S 47445 1.0E-07 M
  % Inhibition of control specific binding: 2%
[9]; [14]
  Ki: > 10 µM
[10]; S 47445 1.0E-05 M
  % Inhibition of control specific binding: 0%
[10]; S 47445 1.0E-07 M
  % Inhibition of control specific binding: -8%
[11]; S 47445 1.0E-05 M
  % Inhibition of control specific binding: 25%
[11]; S 47445 1.0E-07 M
  % Inhibition of control specific binding: 7%
[11]; [14]
  Ki: > 10 µM
[12]
  Effect on glutamate-evoked current: did not modify glutamate-evoked current
[13]
  Leftward shift in the EC50 of glutamate: about 16 fold
[13]; control 94.7 ± 32.8 pA
  Amplitude of the glutamate response in presence of S 47445: 247 ± 70 pA
